Assay results as given in patent publication US12527325B2, “Pesticidally active diazine-amide compounds” (SYNGENTA CROP PROTECTION AG, priority 2019, dated 2026).

What was measured:
Assay type in all cases: in vivo
[1] = test system: Plutella xylostella; experiment: Example B5: Plutella xylostella (Diamond Back Moth); details: 192 h, application rate of 200 ppm, 24-well artificial diet, eggs, 8 days after infestation, read-out: control in at least one of the two categories (mortality or growth inhibition)
Protocol: Example B5: Plutella xylostella (Diamond Back Moth)
24-well microtiter plates with artificial diet were treated with aqueous test solutions prepared from 10′000 ppm DMSO stock solutions by pipetting. After drying, Plutella eggs were pipetted through a plastic stencil onto a gel blotting paper and the plate was closed with it. The samples were assessed for mortality and growth inhibition in comparison to untreated samples 8 days after infestation.

[2] = test system: Spodoptera littoralis; experiment: Example B9: Spodoptera littoralis (Egyptian Cotton Leaf Worm), cotton leaf disc spray; details: foliar, 72 h, application rate of 200 ppm, sprayed cotton leaf discs, L1 larvae, 3 days after infestation, read-out: control in at least one of the three categories (mortality, anti-feedant or growth inhibition)
[3] = test system: Euschistus heros; experiment: Example B2: Euschistus heros (Neotropical Brown Stink Bug); details: 120 h, application rate of 200 ppm, sprayed soybean leaves, N2 nymphs, 5 days after infestation, read-out: control in at least one of the two categories (mortality or growth inhibition)
Protocol: Example B2: Euschistus heros (Neotropical Brown Stink Bug)
Soybean leaves on agar in 24-well microtiter plates were sprayed with aqueous test solutions prepared from 10′000 ppm DMSO stock solutions. After drying the leaves were infested with N2 nymphs. The samples were assessed for mortality and growth inhibition in comparison to untreated samples 5 days after infestation.

[4] = test system: Chilo suppressalis; experiment: Example B4: Chilo suppressalis (Striped Rice Stemborer); details: 144 h, application rate of 200 ppm, artificial diet, L2 larvae, 6 days after infestation, read-out: control in at least one of the three categories (mortality, anti-feedant or growth inhibition)
Protocol: Example B4: Chilo suppressalis (Striped Rice Stemborer)
24-well microtiter plates with artificial diet were treated with aqueous test solutions prepared from 10′000 ppm DMSO stock solutions by pipetting. After drying, the plates were infested with L2 larvae (6-8 per well). The samples were assessed for mortality, anti-feeding effect, and growth inhibition in comparison to untreated samples 6 days after infestation. Control of Chilo suppressalis by a test sample is given when at least one of the categories mortality, anti-feedant effect, and growth inhibition is higher than the untreated sample.

[5] = test system: Plutella xylostella; experiment: Example B12: Plutella xylostella (Diamondback Moth), 96-well artificial diet; details: 216 h, application rate of 500 ppm, eggs, 9 days after infestation
Protocol: Example B12: Plutella xylostella (Diamondback Moth)
96-well microtiter plates containing artificial diet were treated with aqueous test solutions, prepared from 10′000 ppm DMSO stock solutions, by a liquid handling robot. After drying, eggs (˜30 per well) were infested onto a netted lid which was suspended above the diet. The eggs hatch and L1 larvae move down to the diet. The samples were assessed for mortality 9 days after infestation.

[6] = test system: Diabrotica balteata; experiment: Example B1: Diabrotica balteata (Corn Root Worm); details: 96 h, application rate of 200 ppm, sprayed maize sprouts, L2 larvae, 4 days after infestation, read-out: control in at least one of the two categories (mortality or growth inhibition)
Protocol: Example B1: Diabrotica balteata (Corn Root Worm)
Maize sprouts placed onto an agar layer in 24-well microtiter plates were treated with aqueous test solutions prepared from 10′000 ppm DMSO stock solutions by spraying. After drying, the plates were infested with L2 larvae (6 to 10 per well). The samples were assessed for mortality and growth inhibition in comparison to untreated samples 4 days after infestation.

Cc1cnc(-c2nccnc2C(C)NC(=O)c2cc(C(F)(F)F)nc(C3(C#N)CC3)c2)nc1 (centres unmarked) [P2, 2-(1-cyanocyclopropyl)-N-[1-[3-(5-methylpyrimidin-2-yl)pyrazin-2-yl]ethyl]-6-(trifluoromethyl)pyridine-4-carboxamide]
≥ 80%: percent control (mortality or growth inhibition) at 200 ppm [1] | percent control (mortality, anti-feedant effect or growth inhibition) at 200 ppm [2] | percent control (mortality or growth inhibition) at 200 ppm [3] | percent control (mortality, anti-feedant effect or growth inhibition) at 200 ppm [4]

CC(NC(=O)c1cc(C(F)(F)F)cc(C2(C#N)CC2)c1)c1nccnc1-c1ncc(C2CC2)cn1 (centres unmarked) [P3, 3-(1-cyanocyclopropyl)-N-[1-[3-(5-cyclopropylpyrimidin-2-yl)pyrazin-2-yl]ethyl]-5-(trifluoromethyl) benzamide]
≥ 80%: percent control (mortality or growth inhibition) at 200 ppm [1] | percent control (mortality, anti-feedant effect or growth inhibition) at 200 ppm [2] | percent control (mortality or growth inhibition) at 200 ppm [3] | percent control (mortality, anti-feedant effect or growth inhibition) at 200 ppm [4]

CC(NC(=O)c1cc(C(F)(F)F)cc(S(=O)(=O)C(F)(F)F)c1)c1nccnc1-c1ncc(C2CC2)cn1 (centres unmarked) [P11, N-[1-[3-(5-cyclopropylpyrimidin-2-yl)pyrazin-2-yl]ethyl]-3-(trifluoromethyl)-5-(trifluoromethylsulfonyl) benzamide]
≥ 80%: percent control (mortality or growth inhibition) at 200 ppm [1] | percent control (mortality, anti-feedant effect or growth inhibition) at 200 ppm [2] | mortality at 500 ppm [5] | percent control (mortality, anti-feedant effect or growth inhibition) at 200 ppm [4]

CC(NC(=O)c1cc(C(F)(F)F)cc(S(=O)(=O)C(F)(F)F)c1)c1nccnc1-c1ccccn1 (centres unmarked) [P13, N-[1-[3-(2-pyridyl)pyrazin-2-yl]ethyl]-3-(trifluoromethyl)-5-(trifluoromethylsulfonyl) benzamide]
≥ 80%: percent control (mortality or growth inhibition) at 200 ppm [1] | percent control (mortality, anti-feedant effect or growth inhibition) at 200 ppm [2] | mortality at 500 ppm [5] | percent control (mortality, anti-feedant effect or growth inhibition) at 200 ppm [4] | percent control (mortality or growth inhibition) at 200 ppm [6]

CC(NC(=O)c1cc(C(F)(F)F)nc(C2(C#N)CC2)c1)c1nccnc1-c1ccc(Cl)cn1 (centres unmarked) [P16, N-[1-[3-(5-chloro-2-pyridyl)pyrazin-2-yl]ethyl]-2-(1-cyanocyclopropyl)-6-(trifluoromethyl)pyridine-4-carboxamide]
≥ 80%: percent control (mortality or growth inhibition) at 200 ppm [1] | percent control (mortality, anti-feedant effect or growth inhibition) at 200 ppm [2] | mortality at 500 ppm [5] | percent control (mortality, anti-feedant effect or growth inhibition) at 200 ppm [4] | percent control (mortality or growth inhibition) at 200 ppm [6]

CC(NC(=O)c1cc(C(F)(F)F)cc(C2(C#N)CC2)c1)c1nccnc1-c1ccc(Cl)cn1 (centres unmarked) [P17, N-[1-[3-(5-chloro-2-pyridyl)pyrazin-2-yl]ethyl]-3-(1-cyanocyclopropyl)-5-(trifluoromethyl)benzamide]
≥ 80%: percent control (mortality or growth inhibition) at 200 ppm [1] | percent control (mortality, anti-feedant effect or growth inhibition) at 200 ppm [2] | mortality at 500 ppm [5] | percent control (mortality, anti-feedant effect or growth inhibition) at 200 ppm [4] | percent control (mortality or growth inhibition) at 200 ppm [6]

CC(NC(=O)c1cc(C2CC2)cc(C(F)(F)F)c1)c1nccnc1-c1ccc(Cl)cn1 (centres unmarked) [P18, N-[1-[3-(5-chloro-2-pyridyl)pyrazin-2-yl]ethyl]-3-cyclopropyl-5-(trifluoromethyl)benzamide]
≥ 80%: percent control (mortality or growth inhibition) at 200 ppm [1] | mortality at 500 ppm [5] | percent control (mortality, anti-feedant effect or growth inhibition) at 200 ppm [4]

CC(NC(=O)c1cc(C(F)(F)F)cc(C(F)(F)C2CC2)c1)c1nccnc1-c1ccccn1 (centres unmarked) [P20, 3-[cyclopropyl (difluoro)methyl]-N-[1-[3-(2-pyridyl)pyrazin-2-yl]ethyl]-5-(trifluoromethyl) benzamide]
≥ 80%: percent control (mortality or growth inhibition) at 200 ppm [1] | percent control (mortality, anti-feedant effect or growth inhibition) at 200 ppm [2] | mortality at 500 ppm [5] | percent control (mortality, anti-feedant effect or growth inhibition) at 200 ppm [4] | percent control (mortality or growth inhibition) at 200 ppm [6]

CC(NC(=O)c1cc(C(F)(F)F)cc(C2(C#N)CC2)c1)c1nccnc1-c1ccc(Br)cn1 (centres unmarked) [P24, N-[1-[3-(5-bromo-2-pyridyl)pyrazin-2-yl]ethyl]-3-(1-cyanocyclopropyl)-5-(trifluoromethyl)benzamide]
≥ 80%: percent control (mortality or growth inhibition) at 200 ppm [1] | percent control (mortality, anti-feedant effect or growth inhibition) at 200 ppm [2] | mortality at 500 ppm [5] | percent control (mortality, anti-feedant effect or growth inhibition) at 200 ppm [4] | percent control (mortality or growth inhibition) at 200 ppm [6]

CC(NC(=O)c1cc(C(F)(F)F)nc(C2(C#N)CC2)c1)c1nccnc1-c1ccc(F)cn1 (centres unmarked) [P27, 2-(1-cyanocyclopropyl)-N-[1-[3-(5-fluoro-2-pyridyl)pyrazin-2-yl]ethyl]-6-(trifluoromethyl)pyridine-4-carboxamide]
≥ 80%: percent control (mortality or growth inhibition) at 200 ppm [1] | mortality at 500 ppm [5] | percent control (mortality, anti-feedant effect or growth inhibition) at 200 ppm [4]

CC(NC(=O)c1cc(C(F)(F)F)nc(C2(C#N)CC2)c1)c1nccnc1-c1ccc(Br)cn1 (centres unmarked) [P28, N-[1-[3-(5-bromo-2-pyridyl)pyrazin-2-yl]ethyl]-2-(1-cyanocyclopropyl)-6-(trifluoromethyl)pyridine-4-carboxamide]
≥ 80%: percent control (mortality or growth inhibition) at 200 ppm [1] | percent control (mortality, anti-feedant effect or growth inhibition) at 200 ppm [2] | mortality at 500 ppm [5] | percent control (mortality, anti-feedant effect or growth inhibition) at 200 ppm [4] | percent control (mortality or growth inhibition) at 200 ppm [6]

CC(NC(=O)c1cc(C2CC2)cc(C(F)(F)F)c1)c1nccnc1-c1ccccn1 (centres unmarked) [P33, 3-cyclopropyl-N-[1-[3-(2-pyridyl)pyrazin-2-yl]ethyl]-5-(trifluoromethyl)benzamide]
≥ 80%: percent control (mortality or growth inhibition) at 200 ppm [1] | mortality at 500 ppm [5] | percent control (mortality, anti-feedant effect or growth inhibition) at 200 ppm [4] | percent control (mortality or growth inhibition) at 200 ppm [6]

CC(NC(=O)c1cc(C2CC2)cc(C(F)(F)F)c1)c1nccnc1-c1ncc(OC(F)F)cn1 (centres unmarked) [P34, 3-cyclopropyl-N-[1-[3-[5-(difluoromethoxy)pyrimidin-2-yl]pyrazin-2-yl]ethyl]-5-(trifluoromethyl)benzamide]
≥ 80%: percent control (mortality or growth inhibition) at 200 ppm [1] | percent control (mortality, anti-feedant effect or growth inhibition) at 200 ppm [2] | mortality at 500 ppm [5] | percent control (mortality, anti-feedant effect or growth inhibition) at 200 ppm [4] | percent control (mortality or growth inhibition) at 200 ppm [6]

CC(NC(=O)c1cc(C2CC2)cc(C(F)(F)F)c1)c1nccnc1-c1ncc(C2CC2)cn1 (centres unmarked) [P35, 3-cyclopropyl-N-[1-[3-(5-cyclopropylpyrimidin-2-yl)pyrazin-2-yl]ethyl]-5-(trifluoromethyl)benzamide]
≥ 80%: percent control (mortality or growth inhibition) at 200 ppm [1] | percent control (mortality, anti-feedant effect or growth inhibition) at 200 ppm [2] | mortality at 500 ppm [5] | percent control (mortality, anti-feedant effect or growth inhibition) at 200 ppm [4] | percent control (mortality or growth inhibition) at 200 ppm [6]

CC(NC(=O)c1cc(C(F)(F)F)nc(C2(C#N)CC2)c1)c1nccnc1-c1ncc(C2CC2)cn1 (centres unmarked) [P36, 2-(1-cyanocyclopropyl)-N-[1-[3-(5-cyclopropylpyrimidin-2-yl)pyrazin-2-yl]ethyl]-6-(trifluoromethyl)pyridine-4-carboxamide]
≥ 80%: percent control (mortality or growth inhibition) at 200 ppm [1] | percent control (mortality, anti-feedant effect or growth inhibition) at 200 ppm [2] | mortality at 500 ppm [5] | percent control (mortality, anti-feedant effect or growth inhibition) at 200 ppm [4] | percent control (mortality or growth inhibition) at 200 ppm [6]

CC(NC(=O)c1cc(C2CC2)cc(C(F)(F)F)c1)c1nccnc1-c1ccc(F)cn1 (centres unmarked) [P40, 3-cyclopropyl-N-[1-[3-(5-fluoro-2-pyridyl)pyrazin-2-yl]ethyl]-5-(trifluoromethyl)benzamide]
≥ 80%: percent control (mortality or growth inhibition) at 200 ppm [1] | percent control (mortality, anti-feedant effect or growth inhibition) at 200 ppm [2] | mortality at 500 ppm [5] | percent control (mortality, anti-feedant effect or growth inhibition) at 200 ppm [4] | percent control (mortality or growth inhibition) at 200 ppm [6]

C[C@H](NC(=O)c1cc(C(F)(F)F)cc(C(F)(F)C2CC2)c1)c1nccnc1-c1ccc(Br)cn1 [P42, N-[(1S)-1-[3-(5-bromo-2-pyridyl)pyrazin-2-yl]ethyl]-3-[cyclopropyl(difluoro)methyl]-5-(trifluoromethyl)benzamide]
≥ 80%: percent control (mortality or growth inhibition) at 200 ppm [1] | percent control (mortality, anti-feedant effect or growth inhibition) at 200 ppm [2] | mortality at 500 ppm [5] | percent control (mortality, anti-feedant effect or growth inhibition) at 200 ppm [4] | percent control (mortality or growth inhibition) at 200 ppm [6]
